Drawing on patent publication US20230049231A1 (priority 2019, published 2023), this text covers IC50 for 24 compounds.

A value given as a limit tells only on which side of the number the result lay.

One experiment addresses T1, hERG channel (Homo sapiens, UniProt Q12809).
T1 construct: expressed in transfected cells
The experiment is described as follows: hERG electrophysiology, automated whole-cell patch clamp (Patchliner). Conditions: hERG channel, whole-cell patch clamp. In kind it is cell-based. The protocol:
This assay is used to evaluate the disclosed compounds' inhibition activities against the hERG channel.
CHO-K1 cells stably expressing hERG were grown in Ham's F-12 Medium with glutamine containing 10% heat-inactivated FBS, 1% penicillin/streptomycin, hygromycin (100 μg/ml) and G418 (100 μg/ml). Cells were grown in culture flasks at 37° C. in a 5% CO2-humidified incubator.
(§1) The cells were bathed in an extracellular solution containing 140 mM NaCl, 4 mM KCl, 2 mM CaCl2), 1 mM MgCl2, 5 mM glucose, and 10 mM HEPES; pH adjusted to 7.4 with NaOH; 295-305 mOsm. The internal solution contained 50 mM KCl, 10 mM NaCl, 60 mM KF, 20 mM EGTA, and 10 mM HEPES; pH adjusted to 7.2 with KOH; 285 mOsm. All compounds were dissolved in DMSO at 30 mM. Compound stock solutions were freshly diluted with external solution to concentrations of 30 nM, 100 nM, 300 nM, 1 μM, 3 μM, 10 μM, 30 μM and 100 μM. The highest content of DMSO (0.3%) was present in 100 μM.
The voltage protocol (see Table 3) was designed to simulate voltage changes during a cardiac action potential with a 300 ms depolarization to +20 mV (analogous to the plateau phase of the cardiac action potential), a repolarization for 300 ms to −50 mV (inducing a tail current) and a final step to the holding potential of −80 mV. The pulse frequency was 0.3 Hz. Control (compound-free) and compound pulse trains for each compound concentration applied contained 70 pulses.
(§2) Whole-cell current recordings and compound application were enabled by means of an automated patch clamp platform Patchliner (Nanion). EPC 10 patch clamp amplifier (HEKA) along with Patchmaster software (HEKA Elektronik Dr. Schulze GmbH) was used for data acquisition. Data were sampled at 10 kHz without filtering. Increasing compound concentrations were applied consecutively to the same cell without washouts in between.
AUC and PEAK values were obtained with Patchmaster (HEKA Elektronik Dr. Schulze GmbH). To determine IC50 the last single pulse in the pulse train corresponding to a given compound concentration was used. Obtained AUC and PEAK values in the presence of compound were normalized to control values in the absence of compound. Using Origin (OridinLab), IC50 was derived from data fit to Hill equation: Icompound/Icontrol=(100-A)/(1+([compound]/IC50)nH)+A, where IC50 is the concentration at which current inhibition is half-maximal, [compound] is the applied compound concentration, A is the fraction of current that is not blocked and nH is the Hill coefficient.

The target in another experiment is T2, Kv1.3 potassium channel (Homo sapiens, UniProt P22001).
T2 construct: expressed in transfected cells
Nature of the experiment: Kv1.3 potassium channel blocker activity, automated whole-cell patch clamp (Patchliner). In kind it is cell-based. The protocol: This assay is used to evaluate the disclosed compounds' activities as Kv1.3 potassium channel blockers.
CHO-K1 cells stably expressing Kv1.3 were grown in DMEM containing 10% heat-inactivated FBS, 1 mM sodium pyruvate, 2 mM L-glutamine and G418 (500 μg/ml). Cells were grown in culture flasks at 37° C. in a 5% CO2-humidified incubator.
as §1
The currents were evoked by applying 100 ms depolarizing pulses from −90 mV (holding potential) to +40 mV were applied with 0.1 Hz frequency. Control (compound-free) and compound pulse trains for each compound concentration applied contained 20 pulses.
10-second breaks were used between pulse trains (see Table 2 below).
as §2, with “(Nanion Technologies GmbH).” for “(Nanion).”, “(HEKA Elektronik Dr. Schulze GmbH)” for “(HEKA)”, “filtering. Passive leak currents were subtracted online using a P/4 procedure (HEKA Elektronik Dr. Schulze GmbH).” for “filtering.”, “between. Total compound incubation time before the next pulse train was not longer than 10 seconds. Peak current inhibition was observed during compound equilibration.” for “between.”
AUC and peak values were obtained with Patchmaster (HEKA Elektronik Dr. Schulze GmbH). To determine IC50, the last single pulse in the pulse train corresponding to a given compound concentration was used. Obtained AUC and peak values in the presence of compound were normalized to control values in the absence of compound. Using Origin (OridinLab), IC50 was derived from data fit to Hill equation: Icompound/Icontrol=(100−A)/(1+([compound]/IC50)nH)+A, where IC50 value is the concentration at which current inhibition is half-maximal, [compound] is the applied compound concentration, A is the fraction of current that is not blocked and nH is the Hill coefficient.

Where [1] appears, read: Kv1.3 potassium channel, whole-cell patch clamp.
Where [2] appears, read: CHO-K1 cells stably expressing Kv1.3, 100 ms pulses from -90 mV to +40 mV, 0.1 Hz.

T1 sequence (Q12809 whole entry): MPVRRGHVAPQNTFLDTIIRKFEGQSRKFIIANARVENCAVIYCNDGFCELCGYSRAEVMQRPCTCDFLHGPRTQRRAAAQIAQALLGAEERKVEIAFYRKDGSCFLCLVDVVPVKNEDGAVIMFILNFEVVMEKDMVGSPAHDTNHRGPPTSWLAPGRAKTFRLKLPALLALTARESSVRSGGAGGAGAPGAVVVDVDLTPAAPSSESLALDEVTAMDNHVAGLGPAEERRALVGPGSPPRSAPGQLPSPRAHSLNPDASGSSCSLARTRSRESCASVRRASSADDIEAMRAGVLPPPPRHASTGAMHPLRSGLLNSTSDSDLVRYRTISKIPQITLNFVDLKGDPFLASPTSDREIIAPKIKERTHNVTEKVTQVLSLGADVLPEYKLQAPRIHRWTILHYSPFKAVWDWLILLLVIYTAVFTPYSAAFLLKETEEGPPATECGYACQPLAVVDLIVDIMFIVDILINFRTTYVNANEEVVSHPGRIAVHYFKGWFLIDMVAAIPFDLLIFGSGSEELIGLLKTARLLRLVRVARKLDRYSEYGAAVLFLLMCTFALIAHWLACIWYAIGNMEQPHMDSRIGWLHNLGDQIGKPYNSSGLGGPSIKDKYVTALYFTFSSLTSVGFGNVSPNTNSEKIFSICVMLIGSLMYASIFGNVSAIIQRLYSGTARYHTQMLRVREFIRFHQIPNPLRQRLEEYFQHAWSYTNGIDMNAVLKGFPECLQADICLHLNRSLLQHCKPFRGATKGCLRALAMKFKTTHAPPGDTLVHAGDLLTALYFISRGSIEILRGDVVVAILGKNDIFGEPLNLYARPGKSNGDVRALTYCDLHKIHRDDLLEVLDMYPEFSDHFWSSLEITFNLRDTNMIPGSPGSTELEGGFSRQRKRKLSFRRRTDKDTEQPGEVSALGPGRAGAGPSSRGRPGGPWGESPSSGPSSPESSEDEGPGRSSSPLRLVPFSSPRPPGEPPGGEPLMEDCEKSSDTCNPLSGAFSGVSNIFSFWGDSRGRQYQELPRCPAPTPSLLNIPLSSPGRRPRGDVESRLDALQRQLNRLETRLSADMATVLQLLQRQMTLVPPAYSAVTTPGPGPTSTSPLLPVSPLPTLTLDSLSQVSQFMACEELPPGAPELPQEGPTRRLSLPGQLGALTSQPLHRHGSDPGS
T2 sequence (P22001 whole entry): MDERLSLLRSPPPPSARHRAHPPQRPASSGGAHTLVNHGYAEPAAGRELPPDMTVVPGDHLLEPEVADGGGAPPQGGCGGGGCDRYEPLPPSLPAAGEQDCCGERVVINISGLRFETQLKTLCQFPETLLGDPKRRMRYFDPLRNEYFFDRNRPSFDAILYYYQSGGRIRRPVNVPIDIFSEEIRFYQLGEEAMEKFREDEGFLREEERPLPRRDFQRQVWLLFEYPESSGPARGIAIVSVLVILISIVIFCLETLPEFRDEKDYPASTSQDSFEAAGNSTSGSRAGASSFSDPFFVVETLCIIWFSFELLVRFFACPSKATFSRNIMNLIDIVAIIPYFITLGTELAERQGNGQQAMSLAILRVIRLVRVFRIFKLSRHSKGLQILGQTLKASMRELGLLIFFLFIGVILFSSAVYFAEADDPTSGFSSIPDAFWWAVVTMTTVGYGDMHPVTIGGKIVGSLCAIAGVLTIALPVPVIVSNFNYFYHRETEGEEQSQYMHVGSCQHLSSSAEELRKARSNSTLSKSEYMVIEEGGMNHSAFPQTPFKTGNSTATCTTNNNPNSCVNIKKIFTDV

As for `O=C1C(CN2CC(O)C2)OC[C@@H]2C[C@H](c3c(O)ccc(Cl)c3Cl)CCN12` (stereo partly drawn) [Compound 183, (8R,9aS)-8-(2,3-dichloro-6-hydroxyphenyl)-3-[(3-hydroxyazetidin-1-yl)methyl]-hexahydro-1H-pyrido[2,1-c][1,4]oxazin-4-one], the values for the IC50 on hERG channel and on Kv1.3 potassium channel (setting [1]) were below 30 µM and below 1 µM, respectively.

With `O=C(CC(F)F)N1CC(=O)N2C[C@@H](c3c(O)ccc(Cl)c3Cl)C[C@H]2C1` [Compound 68, (7R,8aS)-7-(2,3-dichloro-6-hydroxyphenyl)-2-(3,3-difluoropropanoyl)-hexahydropyrrolo [1,2-a]pyrazin-4-one], the IC50 was above 30 µM at hERG channel and below 1 µM on Kv1.3 potassium channel (setting [1]).

On to `C[C@]1(CO)OC(=O)N2C[C@@H](c3c(O)ccc(Cl)c3Cl)C[C@H]21` (single isomer, unassigned) [Compound 264], for which the figures for the 50% inhibitory concentration (IC50) at hERG channel and at Kv1.3 potassium channel (setting [1]) were above 30 µM and below 1 µM, respectively.

On to `CN[C@@H]1CC(=O)N2C[C@@H](c3c(O)ccc(Cl)c3Cl)C[C@H]2C1` (single isomer, unassigned) [Compound 198], for which the IC50 against hERG channel was above 30 µM; against Kv1.3 potassium channel (setting [1]) it was below 1 µM.

`O=C1CN([C@@H]2COC[C@H]2O)C[C@@H]2C[C@H](c3c(O)ccc(Cl)c3Cl)CN12` (relative stereo) [Compound 155, (7R,8aS)-7-(2,3-dichloro-6-hydroxyphenyl)-2-[(3R,4S)-rel-4-hydroxyoxolan-3-yl]-hexahydropyrrolo[1,2-a]pyrazin-4-one]: the results for the IC50 against hERG channel and against Kv1.3 potassium channel (setting [1]) were above 30 µM and below 1 µM, respectively.

The compound `O=C(CO)N1CC[C@@H]2C[C@H](c3c(O)ccc(Cl)c3Cl)CN2C(=O)C1` [Compound 90, (8R,9aS)-8-(2,3-dichloro-6-hydroxyphenyl)-3-(2-hydroxyacetyl)-hexahydro-1H-pyrrolo[1,2-d][1,4]diazepin-5-one] displayed a concentration for half-maximal inhibition (IC50) against Kv1.3 potassium channel (setting [1]) below 1 µM.

For the compound `Nc1cnc(N2CC(=O)N3C[C@@H](c4c(O)ccc(Cl)c4Cl)C[C@H]3C2)nc1` [Compound 170, (7R,8aS)-2-(5-aminopyrimidin-2-yl)-7-(2,3-dichloro-6-hydroxyphenyl)-hexahydropyrrolo[1,2-a]pyrazin-4-one], the IC50 on Kv1.3 potassium channel (setting [1]) is below 1 µM.

In turn, `N#C[C@@H]1CC(=O)N2C[C@@H](c3c(O)ccc(Cl)c3Cl)C[C@H]2C1` (single isomer, unassigned) [Compound 228] displayed a concentration for half-maximal inhibition (IC50) at Kv1.3 potassium channel (setting [1]) below 1 µM.

`CN1C[C@@H]2C[C@H](c3c(O)ccc(Cl)c3Cl)CN2C1=O` [Compound 291, (6R,7aS)-6-(2,3-dichloro-6-hydroxyphenyl)-2-methyl-tetrahydro-1H-pyrrolo[1,2-c]imidazol-3-one]: the IC50 on Kv1.3 potassium channel (setting [1]) was below 10 µM.

Take `C[C@@H]1C(=O)N2CC[C@@H](c3c(O)ccc(Cl)c3Cl)C[C@H]2CN1C(=O)CO` [Compound 12, (3R,8R,9aS)-8-(2,3-dichloro-6-hydroxyphenyl)-2-(2-hydroxyacetyl)-3-methyloctahydro-4H-pyrido[1,2-a]pyrazin-4-one]: at Kv1.3 potassium channel (setting [2]), the 50% inhibitory concentration (IC50) is below 10 µM.

Take `O=C(CO)N1CC(=O)N2C[C@H](c3c(O)ccc(Cl)c3Cl)CC[C@H]2C1` (relative stereo) [Compound 13, (7S,9aS)-rel-7-(2,3-dichloro-6-hydroxyphenyl)-2-(2-hydroxyacetyl)-hexahydro-1H-pyrido[1,2-a]pyrazin-4-one]: the 50% inhibitory concentration (IC50) at Kv1.3 potassium channel (setting [2]) was below 1 µM.

`C[C@H](CO)C(=O)N1CC(=O)N2CC[C@H](c3c(O)ccc(Cl)c3Cl)C[C@@H]2C1` [Compound 20, (8S,9aR)-8-(2,3-dichloro-6-hydroxyphenyl)-2-((R)-3-hydroxy-2-methylpropanoyl)octahydro-4H-pyrido[1,2-a]pyrazin-4-one] had an IC50 on Kv1.3 potassium channel (setting [2]) below 1 µM.

`C[C@@H](O)CC(=O)N1CC(=O)N2C[C@@H](c3c(O)ccc(Cl)c3Cl)C[C@H]2C1` [Compound 53, (7R,8aS)-7-(2,3-dichloro-6-hydroxyphenyl)-2-[(3R)-3-hydroxybutanoyl]-hexahydropyrrolo[1,2-a]pyrazin-4-one] came in with an IC50 at Kv1.3 potassium channel (setting [2]) below 1 µM.

Consider `O=C1N(CCO)C[C@@H]2C[C@H](c3c(O)ccc(Cl)c3Cl)CN12` [Compound 290, (6R,7aS)-6-(2,3-dichloro-6-hydroxyphenyl)-2-(2-hydroxyethyl)hexahydro-3H-pyrrolo[1,2-c]imidazol-3-one], for which the half-inhibitory concentration (IC50) on Kv1.3 potassium channel (setting [1]) was below 10 µM.

On Kv1.3 potassium channel (setting [2]), `O=C(CO)N1CC(=O)N2CC[C@H](c3c(O)cc(Cl)c(Cl)c3Cl)C[C@@H]2C1` [Compound 5, (8S,9aR)-2-(2-hydroxyacetyl)-8-(2,3,4-trichloro-6-hydroxyphenyl)-hexahydro-1H-pyrido[1,2-a]pyrazin-4-one] showed an IC50 below 1 µM.

In turn, `CN(C)C(=O)N1CC(=O)N2C[C@@H](c3c(O)ccc(Cl)c3Cl)C[C@H]2C1` [Compound 30, (7R,8aS)-7-(2,3-dichloro-6-hydroxyphenyl)-N,N-dimethyl-4-oxohexahydropyrrolo[1,2-a]pyrazine-2(1H)-carboxamide] displayed a half-maximal inhibitory concentration (IC50) at Kv1.3 potassium channel (setting [2]) below 1 µM.

In the case of `N[C@@H]1C[C@@H]2C[C@H](c3c(O)ccc(Cl)c3Cl)CN2C1=O` (single isomer, unassigned) [Compound 249], the half-maximal inhibitory concentration (IC50) against Kv1.3 potassium channel (setting [1]) was below 1 µM.

At Kv1.3 potassium channel (setting [1]), `O=C1CC[C@@H]2C[C@H](c3c(O)ccc(Cl)c3Cl)CN12` [Compound 244, (6R,7aR)-6-(2,3-dichloro-6-hydroxyphenyl)-hexahydropyrrolizin-3-one] registered an IC50 below 1 µM.

With `O=C1CN(c2ccc(CO)cn2)C[C@@H]2C[C@H](c3c(O)ccc(Cl)c3Cl)CN12` [Compound 168, (7R,8aS)-7-(2,3-dichloro-6-hydroxyphenyl)-2-[5-(hydroxymethyl)pyridin-2-yl]-hexahydropyrrolo[1,2-a]pyrazin-4-one], the IC50 at Kv1.3 potassium channel (setting [1]) is below 1 µM.

The compound `O=C1OC[C@@H]2C[C@H](c3c(O)ccc(Cl)c3Cl)CCN12` [Compound 252, (7R,8aS)-7-(2,3-dichloro-6-hydroxyphenyl)-hexahydro-[1,3]oxazolo[3,4-a]pyridin-3-one] came in with an IC50 against Kv1.3 potassium channel (setting [1]) below 1 µM.

On to `O=C1[C@@H](CO)NC[C@H]2C[C@@H](c3c(O)ccc(Cl)c3Cl)CCN12` [Compound 36, (3R,8S,9aR)-8-(2,3-dichloro-6-hydroxyphenyl)-3-(hydroxymethyl)-octahydropyrido[1,2-a]pyrazin-4-one], for which the IC50 against Kv1.3 potassium channel (setting [2]) is below 1 µM.

With `CC(=O)NCC1OC[C@@H]2C[C@H](c3c(O)ccc(Cl)c3Cl)CCN2C1=O` (stereo partly drawn) [Compound 186, N-[[(8R,9aS)-8-(2,3-dichloro-6-hydroxyphenyl)-4-oxo-hexahydro-1H-pyrido[2,1-c][1,4]oxazin-3-yl]methyl]acetamide], at Kv1.3 potassium channel (setting [1]), the half-maximal inhibitory concentration (IC50) was below 1 µM.

In the case of `O=C1[C@H](CO)OC[C@@H]2C[C@H](c3c(O)ccc(Cl)c3Cl)CCN12` (single isomer, unassigned) [Compound 43], the IC50 against Kv1.3 potassium channel (setting [2]) is below 1 µM.

At Kv1.3 potassium channel (setting [1]), `CCN(CC)C(=O)N1CC(=O)N2C[C@@H](c3c(O)ccc(Cl)c3Cl)C[C@H]2C1` [Compound 99, (7R,8aS)-7-(2,3-dichloro-6-hydroxyphenyl)-N,N-diethyl-4-oxo-hexahydropyrro[1,2-a]pyrazine-2-carboxamide] displayed a concentration for half-maximal inhibition (IC50) below 1 µM.

What is called IC50 is the concentration that inhibits the measured activity by half.
